According to patent US10722582B2, “Targeted antimicrobial photodynamic therapy” (Purdue Research Foundation, priority 2018, dated 2020):

Key:
Assay type in all cases: cell-based, Staphylococcus aureus
[1] = tested on: S. aureus (PCI 1203; ATCC 10537); assay: aPDI with CFL irradiation (406 nm), planktonic bacteria, drop-plate colony count; conditions: for potency relative to dark toxicity (0 min exposure): 3-log reduction
Experimental: The aPDI properties of Ga-PpIX were compared against PpIX, whose photosensitizer activities are well known and whose optical profile is similar to that of Ga-PpIX (FIG. 2).
All bacterial strains were cultured at 37° C. in an aerobic atmosphere unless otherwise noted. […] Bacterial counts were estimated in units of cfu/mL by plating serial dilutions onto agar plates, followed by incubation for 16 hours at 37° C. […] Further details and variations on iron-deficient culture conditions are provided in Supporting Information.
Antimicrobial assays were performed on planktonic bacteria at 10^7 cfu/mL with variable exposure times to CFL irradiation, followed by plating on agar and incubation at 37° C. […] The irradiated bacteria were plated onto agar in serial tenfold dilutions (10^7-10^1 cfu/mL); controls included one set of wells without photosensitizer, and one set of wells with photosensitizer but without 15 min irradiation, prior to plating (dark toxicity). Bacterial counts were determined by the drop-plate method using TS-agar plates, and reported in colony-forming units per milliliter (cfu/mL).
The irradiation source consisted of a 20-W compact fluorescent lightbulb (CFL; Sunlite SL20/BLB) housed in an ellipsoidal reflector dome.

S. aureus = assay: Antibacterial activity assay with LED light
Experimental: Antibacterial activity assay general protocol: Used LED light to test conditions. Bacteria were grown in TS broth, followed by 3 mM bipyridine in TS broth until log phase. Bacteria were then diluted with PBS, to OD 0.1 (˜10^) and then to ˜10^7 cfu/mL. 100 uL of bacteria were placed in 96 well plates with the appropriate GaPpIX concentration. 2× serial dilutions were then done to obtain other GaPpIX concentrations. Each concentration was done in triplicate. Bacteria were left incubating and irradiating for different amount of times at different light powers or left in the dark. 10× Serial dilutions were done and bacteria were plated for colony counting using the drop-plate technique. Colonies were counted after 24 hours. As reported herein, a 3-log reduction equals measurable antimicrobial action; a 6-log reduction equals total eradication.
Stock solution preparation (AVM-3-36, 10 nm AgNP). Prepared a solution of (AVM-2-273) GaPpIX-apoHb 1 mg/mL in MP H2O, deaerated. Took 10 mL of 10 nm AgNPs, centrifuged at 900 G for 5 min (Beckman, 3100 RPM), took supernantant and added 200 uL of GaPpIXHb. After overnight, centrifuged 3000 RPM g for 5 minutes (Beckman). Took supernantant and centrifuged using a 100 K CentriCon tube at 4000 RPM for 5 minutes, 3×. Added 15 mM borate buffer to NPs. Based on calibration curve, the stock solution is 1.94 ug/mL AgNP, so stock: 79 μg/mL AgNP, 10.37 μg/mL GaPpIXHb, 0.446 μg/mL GaPpIX (refer to AVM-2-293A and AVM-3-3).
The following antibacterial activity measurements were assayed in the presence of AgNP.

S. aureus (PCI 1203) = assay: Competitive hemin uptake assay (fluorescence microscopy); conditions: for Fluorescence after 15 min / Fluorescence after 15 min exposure + 1 equiv. hemin: Fe-deficient conditions (TS media containing 3 mM bipy), no background subtraction
Experimental: To elucidate the relevant structural features for the specific uptake of Ga-PpIX by S. aureus, we performed a competitive uptake assay using one equivalent of hemin against Ga-PpIX, PpIX, and eleven other fluorescent PpIX derivatives, with evaluation by fluorescence microscopy after 15 minutes of co-incubation (FIG. 5 and Table 4). These studies were partly guided by insights taken from the X-ray structures of hemin and Ga-PpIX within the binding pocket of IsdH: (i) coordination of the metal center by an apical tyrosine residue; (ii) the flanking of vinyl groups on pyrrole rings A and B against nearby aromatic residues; and (iii) the extension and presumed hydration of the propionyl groups (rings C and D) outside of the binding pocket.
Bacteria were cultured and assayed in iron-deficient media unless otherwise noted. A stock solution of Ga-PpIX (14.6 μM) was prepared by dispersing 5 mg in 1 mL of 10% DMSO in PBS for 10 minutes in an ultrasonic cleaning bath protected from light, followed by filtration and 10× dilution in PBS just prior to use. Bacterial suspensions (0.5 mL) were treated with freshly prepared solutions of PpIX derivatives for specified periods (5-15 min), then harvested by centrifugation at 5.2 g for 5 minutes, redispersed twice in 0.5 mL deionized water, and centrifuged a third time. A 10-μL aliquot of concentrated bacteria was deposited onto a glass slide and dried in air for 20 min, then imaged by fluorescence microscopy as described above. For details on fluorescence image processing and quantitative analysis, see Supporting Information.
S. aureus (PCI 1203; ATCC 10537) was first cultured in standard TS broth, then in media containing 3 mM bipyridine. Bacteria were pelleted and washed with PBS buffer three times, then resuspended to a final concentration of 10^8 cfu/mL. Stock solutions of hemin and PpIX derivatives 1-13 were prepared at initial concentrations of 292 μM; hemin and fluorescent PpIX solutions were mixed in a 1:1 ratio (0.5 mL), then added to 0.5 mL of bacterial suspension and allowed to sit for 15 min at room temperature. For control studies, hemin or fluorophore solutions were substituted with PBS to maintain constant […]. Bacteria were harvested and washed as described above, then evaluated by fluorescence microscopy for relative uptake efficiency.
Darkfield and fluorescent images were acquired in succession, with the former used to map regions of interest (ROIs) by tracing the outlines of bacteria (FIG. 8). Three images were acquired for each sample; in each case, the tracing map was overlaid onto the fluorescence image to calculate pixel intensities within each ROI, using the mean pixel intensity for quantitative analysis. Bacteria were also imaged without treatment with PpIX analogs, most of which produced values close to that of background except for Salmonella enterica, which served as the upper limit of autofluorescence (cf. FIG. 4). Data collection and image analyses were performed by the same user to ensure consistency for comparative analysis.

[2] = 0 min (dark), no irradiation (dark toxicity)
[3] = 15 min CFL 406 nm, 12.4 mW/cm^2 (11.2 J/cm^2)
[4] = one equivalent of hemin, 15 minutes of co-incubation

C=CC1=C(C)c2cc3[nH]c(cc4nc(cc5[nH]c(cc1n2)c(C)c5CCC(=O)O)C(CCC(=O)O)=C4C)c(C)c3C=C [PpIX (2), PpIX, reference compound]
Antimicrobial activity (minimum 3-log CFU reduction) [1, 2]: 36 μM | Antimicrobial activity (minimum 3-log CFU reduction) [1, 3]: 1.1 μM | Eradication (6 log reduction) ([1]; 15 min CFL (11.2 J/cm^2)): 2.3 μM | potency relative to dark toxicity (0 min exposure) ([1]; 15 min CFL): 32x | Eradication (6 log reduction) ([1]; No irradiation (dark toxicity)): 73 μM | concentration for 3-log reduction (measurable antimicrobial action) (S. aureus): 940 nM | concentration for 6-log reduction (total eradication) (S. aureus): 1900 nM | Fluorescence after 15 min (S. aureus (PCI 1203)): 16.70 a.u. | Fluorescence after 15 min exposure + 1 equiv. hemin (S. aureus (PCI 1203)): 9.4 a.u. | effect of hemin competition on uptake (S. aureus (PCI 1203); [4]): moderately affected by hemin

Ga(III)-protoporphyrin [Ga-PpIX (1)]
Antimicrobial activity (minimum 3-log CFU reduction) [1, 2]: >60 μM | Antimicrobial activity (minimum 3-log CFU reduction) ([1]; 5 min CFL 406 nm, 12.4 mW/cm^2 (3.7 J/cm^2)): 3.75 μM | Eradication (6 log reduction) ([1]; 5 min CFL (3.7 J/cm^2)): 15 μM | potency relative to dark toxicity (0 min exposure) ([1]; 5 min CFL): >16x | Antimicrobial activity (minimum 3-log CFU reduction) [1, 3]: 0.47 μM | Eradication (6 log reduction) ([1]; 15 min CFL (11.2 J/cm^2)): 7.5 μM | potency relative to dark toxicity (0 min exposure) ([1]; 15 min CFL): >128x | concentration for >99.9% reduction ([1]; 15 minutes of CFL irradiation): 470 nM | increase in potency relative to Ga-PpIX dark toxicity (>99.9% reduction) ([1]; 15 minutes of CFL irradiation): 128 fold | increase in potency relative to Ga-PpIX dark toxicity (total eradication, >6 log reduction) ([1]; 15 minutes of CFL irradiation): 16 fold | Eradication (6 log reduction) ([1]; No irradiation (dark toxicity)): 120 μM | concentration for 3-log reduction (measurable antimicrobial action) (S. aureus): 59 nM | concentration for 6-log reduction (total eradication) (S. aureus): 235 nM | Fluorescence after 15 min (S. aureus (PCI 1203)): 42.55 a.u. | Fluorescence after 15 min exposure + 1 equiv. hemin (S. aureus (PCI 1203)): 10.0 a.u. | reduction in fluorescence by competition with hemin (S. aureus (PCI 1203); [4]): greater than 80%
